This note sets out measurements from patent US20100197643A1, “PHYTOCHEMICAL-RICH OILS AND METHODS RELATED THERETO” (priority 2007, published 2010).

For one data set, the system named is Caco-2 cell monolayers. The data set can be described thus: Transepithelial transport model, apical to basolateral. The data set is classed as in vitro ADME. To be noted: 2 hours, 37° C., not affected by initial polyphenolic concentration.
Data set [1] in a line: Phenolic storage stability of açai oil, 10 weeks at 20, 30, 40° C. The data set is classed as physicochemical. Conditions: for change in concentration after storage: 10 weeks at 20 or 30 ° C.
The test system of the next data set is caspase-3. The data set can be described thus: Caspase-3 activation in HL-60 cells. Conditions: optimal time (2, 3, 4 hours tested), highest concentration. The data set is classed as cell-based, human.

Each structure is given as a SMILES string.

In the case of `Oc1cc(O)c2c(c1)O[C@H](c1ccc(O)c(O)c1)[C@@H](O)C2` [(+)-catechin], the “transport efficiency (percentage of initial apical concentration detected on basolateral side)” value in the data set with Caco-2 cell monolayers (from açai oil extracts) is “approximately 0.1%”. The “change in concentration after storage” value in data set [1] is listed as “no significant changes”.

Take `O=c1c(O)c(-c2ccc(O)c(O)c2)oc2cc(O)cc(O)c12` [Quercetin, quercetin]: the “caspase-3 activation (maximal)” value in the data set on caspase-3 was “double”. Still for that read-out and setting: then `CC[C@@]1(O)C(=O)OCc2c1cc1n(c2=O)Cc2cc3ccccc3nc2-1` [camptotechin], with 7 fold. In the case of `COc1cc(/C=C/C(=O)O)ccc1O` [ferulic acid], in the data set with Caco-2 cell monolayers (from açai oil extracts), the “transport efficiency (percentage of initial apical concentration detected on basolateral side)” value is “approximately 0.1%”. For the same molecule, the “decrease in concentration after storage” value in data set [1] (10 weeks at 20° C.) amounted to 9.3%; in data set [1] (10 weeks at 30° C.), 20.3%. Moreover, in data set [1] (10 weeks at 40° C.), the “decrease / change in concentration after storage” value is on record as 33.1%. For `O=C(O)c1ccc(O)cc1` [p-hydroxybenzoic acid], in the data set with Caco-2 cell monolayers (from açai pulp extracts), the “transport efficiency (percentage of initial apical concentration detected on basolateral side)” value was “approximately 2.0%”. For the same molecule, the “change in concentration after storage” value in data set [1] is given as “no significant changes”. As to `O=C(O)c1ccc(O)c(O)c1` [protocatechuic acid, 3,4-dihydroxybenzoic acid], the “change in concentration after storage” value in data set [1] is reported as “no significant changes”. As for `COc1cc(C(=O)O)cc(OC)c1O` [syringic acid], in the data set on Caco-2 cell monolayers (from açai pulp extracts), the “transport efficiency (percentage of initial apical concentration detected on basolateral side)” value is on record as “approximately 0.6%”. Besides, the “change in concentration after storage” value in data set [1] is given as “no significant changes”.

Regarding `COc1cc(C(=O)O)ccc1O` [vanillic acid], the “change in concentration after storage” value in data set [1] is reported as “no significant changes”.
